According to patent US8975442B2, “Process for the preparation of and crystalline forms of optical enantiomers of modafinil” (Teva Sante, priority 2002, dated 2015):

Experiments:
Type in all cases: physicochemical
[1] = Solubility of modafinil acid in 2-methoxyethanol
Text: Solubility of the Racemic Mixture in 2-Methoxyethanol: […]

[2] = Solubility of modafinil acid in methanol
Text: Solubility of the Racemic Mixture in Methanol:

[3] = Solubility of modafinil acid in ethanol
Text: Solubility of the Racemic Mixture in Ethanol:

Row | Structure (SMILES) | Solubility by mass ([1]; 20.0 °C) [%] | Solubility by mass ([2]; 20.0 °C) [%] | Solubility by mass ([3]; 20.0 °C) [%] | Solubility by mass ([1]; 10.0 °C) [%] | ratio α (ratio of solubilities s(±)/s(+)) ([1]; 20 °C) | Solubility by mass ([1]; 30.0 °C) [%] | Solubility by mass ([1]; 40.0 °C) [%] | Solubility by mass ([2]; 10.0 °C) [%] | ratio α (ratio of solubilities s(±)/s(+)) ([2]; 20 °C) | Solubility by mass ([2]; 30.0 °C) [%] | Solubility by mass ([2]; 40.0 °C) [%] | Solubility by mass ([3]; 10.0 °C) [%] | ratio α (ratio of solubilities s(±)/s(+)) ([3]; 20 °C) | Solubility by mass ([3]; 30.0 °C) [%]
1 | O=C(O)C[S+]([O-])C(c1ccccc1)c1ccccc1 (single isomer, unassigned; (+)) [(+)-antipode] | 4 | 4.9 | 1.99 | – | – | – | – | – | – | – | – | – | – | –
2 | O=C(O)C[S+]([O-])C(c1ccccc1)c1ccccc1 (racemic) [(±)-modafinil acid, (±)-benzhydrylsulphinylacetic acid] | 8 | 9.7 | 4.1 | 7.4 | 2.53 | 13.5 | 16 | 7.4 | 2.53 | 13.9 | 25.7 | 3.0 | 2.06 | 5.96
